Reference: patent US9999655B2, “Use of MKS inhibitor peptide-containing compositions for treating non-small cell lung cancer with same” (Moerae Matrix, Inc., priority 2015, dated 2018)
Where no end group is shown, it is not given here.

Tests used:
[1] = test system: 266 human kinases; type: biochemical; conditions: peptide at 100 μM, 266 human kinases
Experimental: (§1) Every kinase activity measurement was conducted in duplicate.
(§2) IC50 (half maximal inhibitory concentrations) value for the MK2 inhibitor peptides identified below was determined using Millipore's IC50 Profiler Express service. […] Specifically, in these assays, a positively charged substrate is phosphorylated with a radiolabeled phosphate group from an ATP if the kinase is not inhibited by an inhibitor peptide. The positively charged substrate then is attracted to a negatively charged filter membrane, quantified with a scintillation counter, and compared to a 100% activity control.

[2] = target: Calcium/Calmodulin-Dependent Protein Kinase I (CaMKI) (Homo sapiens, UniProt Q14012); assay: biochemical; conditions: read-out: inhibition of kinase activity of CaMKI
Experimental: as §1, §2

[3] = target: (Homo sapiens, UniProt Q15746); type: biochemical; conditions: MLCK(h); peptide 100 μM
Experimental: as §1, §2

[4] = target: Ca2+/calmodulin-dependent protein kinase II (CaMKII); conditions: cited from earlier work
[5] = test system: advanced NSCLC; conditions: patients with advanced NSCLC; P=0.04; cited from earlier work

(Homo sapiens, UniProt Q15746), sequence (Q15746 whole entry): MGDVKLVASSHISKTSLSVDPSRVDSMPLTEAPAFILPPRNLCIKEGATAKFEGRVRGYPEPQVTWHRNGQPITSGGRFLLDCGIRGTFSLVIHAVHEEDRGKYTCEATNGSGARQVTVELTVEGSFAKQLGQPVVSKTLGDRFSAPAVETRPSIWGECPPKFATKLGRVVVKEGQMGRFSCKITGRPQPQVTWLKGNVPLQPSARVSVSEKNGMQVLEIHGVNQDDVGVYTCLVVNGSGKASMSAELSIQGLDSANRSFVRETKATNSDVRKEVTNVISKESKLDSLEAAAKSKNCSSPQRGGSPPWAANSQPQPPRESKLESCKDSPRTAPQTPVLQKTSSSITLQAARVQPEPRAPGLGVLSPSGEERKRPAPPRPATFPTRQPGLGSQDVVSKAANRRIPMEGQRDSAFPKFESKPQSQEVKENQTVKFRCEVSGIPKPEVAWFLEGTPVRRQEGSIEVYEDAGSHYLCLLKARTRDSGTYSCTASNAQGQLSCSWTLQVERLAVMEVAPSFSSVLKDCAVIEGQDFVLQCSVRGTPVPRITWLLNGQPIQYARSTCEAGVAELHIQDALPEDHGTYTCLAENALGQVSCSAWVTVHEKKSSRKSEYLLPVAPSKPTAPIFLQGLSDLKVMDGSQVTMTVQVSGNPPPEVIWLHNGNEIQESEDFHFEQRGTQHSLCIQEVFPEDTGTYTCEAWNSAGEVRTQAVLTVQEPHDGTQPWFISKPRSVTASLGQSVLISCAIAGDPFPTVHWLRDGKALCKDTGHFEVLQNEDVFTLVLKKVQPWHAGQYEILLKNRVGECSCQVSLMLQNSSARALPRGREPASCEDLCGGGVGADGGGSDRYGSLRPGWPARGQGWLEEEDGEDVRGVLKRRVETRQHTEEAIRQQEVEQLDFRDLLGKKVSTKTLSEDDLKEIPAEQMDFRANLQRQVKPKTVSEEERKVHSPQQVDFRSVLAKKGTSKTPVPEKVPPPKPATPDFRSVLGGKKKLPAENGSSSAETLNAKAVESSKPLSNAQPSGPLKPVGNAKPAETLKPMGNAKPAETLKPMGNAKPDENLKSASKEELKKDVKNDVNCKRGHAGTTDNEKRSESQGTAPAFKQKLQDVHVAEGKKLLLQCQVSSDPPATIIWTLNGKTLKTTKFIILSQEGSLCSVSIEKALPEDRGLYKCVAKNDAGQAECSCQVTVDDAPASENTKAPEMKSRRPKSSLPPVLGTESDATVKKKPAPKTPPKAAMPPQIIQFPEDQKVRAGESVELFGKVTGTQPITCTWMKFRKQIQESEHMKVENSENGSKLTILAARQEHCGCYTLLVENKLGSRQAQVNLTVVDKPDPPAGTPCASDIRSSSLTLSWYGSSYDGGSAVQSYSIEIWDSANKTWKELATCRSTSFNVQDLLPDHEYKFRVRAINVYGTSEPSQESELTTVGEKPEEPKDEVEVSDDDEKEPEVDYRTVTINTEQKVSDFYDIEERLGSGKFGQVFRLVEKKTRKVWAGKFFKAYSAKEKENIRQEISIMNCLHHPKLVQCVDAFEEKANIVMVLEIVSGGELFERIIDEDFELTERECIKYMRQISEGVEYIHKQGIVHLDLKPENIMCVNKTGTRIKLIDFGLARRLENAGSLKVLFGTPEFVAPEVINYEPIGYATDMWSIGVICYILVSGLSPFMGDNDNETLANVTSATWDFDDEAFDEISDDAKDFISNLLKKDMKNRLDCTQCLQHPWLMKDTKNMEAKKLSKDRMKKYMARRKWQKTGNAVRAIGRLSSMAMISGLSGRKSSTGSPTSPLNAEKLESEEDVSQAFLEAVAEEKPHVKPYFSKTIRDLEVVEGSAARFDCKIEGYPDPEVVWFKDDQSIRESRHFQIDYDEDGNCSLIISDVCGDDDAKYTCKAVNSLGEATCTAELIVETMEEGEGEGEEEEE
Calcium/Calmodulin-Dependent Protein Kinase I (CaMKI), sequence (Q14012 whole entry): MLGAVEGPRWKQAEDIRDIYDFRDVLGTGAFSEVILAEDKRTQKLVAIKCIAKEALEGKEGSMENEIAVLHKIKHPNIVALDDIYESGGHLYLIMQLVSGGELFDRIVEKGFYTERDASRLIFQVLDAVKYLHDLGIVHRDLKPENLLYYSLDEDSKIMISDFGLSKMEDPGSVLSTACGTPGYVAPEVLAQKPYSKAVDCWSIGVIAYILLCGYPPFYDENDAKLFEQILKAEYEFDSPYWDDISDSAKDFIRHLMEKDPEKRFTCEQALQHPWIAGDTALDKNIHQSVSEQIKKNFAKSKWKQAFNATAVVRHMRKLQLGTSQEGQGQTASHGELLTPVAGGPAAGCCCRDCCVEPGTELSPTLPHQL

| Substance | off-target kinase inhibition (specificity) [1] | further results |
| --- | --- | --- |
| FAKLAARLYRKALARQLGVAA [MMI-0300] | very limited off-target kinase inhibition | – |
| HRRIKAWLKKIKALARQLGVAA (Mammalian) [MMI-0500] | very limited off-target kinase inhibition | – |
| KAFAKLAARLYRKALARQLGVAA [MMI-0400] | very limited off-target kinase inhibition | – |
| YARAAARQARAKALARQLGVAA [MMI-0100] | – | inhibition at 100 µM [2]: > 65%; % activity [3]: 85% |
| YARAAARQARAKALNRQLGVA (Mammalian) [MMI-0200] | very limited off-target kinase inhibition | – |
| autocamtide-2 related inhibitory peptide [AIP] | – | IC50 [4]: 0.1 µM |
| cisplatin/vinorelbine | – | overall survival [5]: 10.1 months |
